Laboratory results reported in US10473670B2 (University of Kentucky Research Foundation, priority 2016, dated 2019).
Entries after “also recorded” stand apart in the source; their conditions may differ.

Assays:
[1] = tested on: mTORC1 and ERK1/2 signaling; assay: Western blot of p-S6K1 and p-ERK1/2 in BON cells; type: cell-based, human; conditions: pretreatment with CC 10 μM, AICAR 1 mM 3 h
Method: FIGS. 16A-D show graphs and images illustrating Cross-talk of AMPK and mTORC1 signaling. A. Diagram of cross-talk of AMPK and mTORC1 signaling. B. Western blot analysis of BON cells treated with or without AICAR (left panel) or 1 mM AICAR and CC (10 μM) (right panel) for 3 h. C. NT EIA (upper panel) and western blotting (lower panel) on BON cells expressing control vector and myc-raptor S722A/S792A treated with AICAR (1 mM) for 3 h. D. NT EIA (upper panel) and western blotting (lower panel) on BON cells expressing control vector and NTC and TSC2 siRNA treated with AICAR (1 mM) for 3 h. *p<0.05 vs. control in vector, †p<0.05 vs. AICAR in vector (C); *p<0.05 vs. control in NTC siRNA, †p<0.05 vs. control in NTC siRNA, ‡ p<0.05 vs. AICAR in NTC siRNA (D). n=6. All data are mean+/−SD.
AMPK activation inhibits mTORC1 through raptor, a component of mTORC1, or TSC2, a negative regulator of mTORC1 signaling. […] Moreover, a stable BON overexpression cell line was generated with a mutant raptor vector in which both Ser722 and Ser792 (AMPK phosphorylation sites) are replaced by alanine. […] Together, these findings further indicate the interaction of AMPK, mTORC1 and ERK signaling in the regulation of NT secretion.

STC-1 cells = assay: NT release from STC-1 cells (NT EIA); type: cell-based, mouse; conditions: OA 0.25 mM, phorbol myristate acetate 100 nM
Text: FIGS. 15A-B show graphs and images illustrating that FFAR1 and FFAR4 agonists increase AMPK activity. A. NT IF (left panel), NT EIA (middle panel, *p<0.05 vs. control) and western blotting (right panel) of STC-1 cells. B. Real-time PCR. GAPDH was used as the internal control (BON cell expression was arbitrarily set at 1). All data are mean+/−SD.
FFAR1 (previously known as GPR40) and FFAR4 (previously known as GPR120) are medium- to long-chain FFA G-protein-coupled receptors that have been implicated in the regulation of energy homeostasis and hormone secretion.

AMPK [2] = assay: Western blot of p-AMPK in FHs 74 Int cells; type: cell-based, human; conditions: FHs 74 Int cells treated with oleate 1 h
Method: (§2) G. Human small intestinal cells (FHs74Int) (left panel) and RIE-1 cells (right panel) were treated with the indicated concentrations of oleate for 1 h and lysates were analyzed by western blotting. […] All data are mean+/−SD. Experiments in vitro were at least repeated three times.
(§3) Tissues and cells were lysed with lysis buffer (Cell Signaling Technology), and equal amounts of protein were resolved on 4-12% NuPAGE BisTris gels (Life Technologies) and electrophoretically transferred to polyvinylidene difluoride (PVDF) membranes; the membranes were incubated with primary antibodies overnight at 4° C. followed by secondary antibodies conjugated with horseradish peroxidase. Membranes were developed using chemiluminescence (ECL) Western Blotting System from GE Healthcare Life Science (Piscataway, N.J.) and Thermo Scientific (Waltham, Mass.).

AMPK [3] = assay: Western blot of p-AMPK in RIE-1 cells; type: cell-based, rat; conditions: RIE-1 cells treated with oleate 1 h
Method: as §2
All data are mean+/−SD. Experiments were repeated at least three times.
as §3

C57BL/6 mice [4] = assay: Acute SR 48692 treatment: proximal intestinal TG content after olive oil gavage; type: in vivo; conditions: 2.5 mg/kg ip 30 min before olive oil gavage
Text: (§1) FIGS. 13A-D show graphs and images illustrating that NT promotes intestinal cell lipid absorption or accumulation, while NT deficiency reduces intestinal lipid absorption A. Proximal intestines from mice given saline, olive oil, or olive oil+SR 48692 were collected and TG levels quantified as described above (n=8). Graph presents the fold change vs. control mice. * p<0.05 vs. control mice; † p<0.05 vs. mice with olive oil only. B. Male NT^+/+ and NT^−/− mice (n=4) on normal chow were fasted overnight. Mice were injected with either saline or SR 48692 (2.5 mg/kg, i.p). Thirty min after the injection, mice were given olive oil (10 μl/g) by oral gavage and then sacrificed. The proximal small bowel was excised and TG content measured. *p<0.05 vs. saline in NT^+/+ and NT^−/− mice; † p<0.05 vs. olive oil only in NT^+/+ mice; ‡ p<0.05 vs. olive oil only in NT^+/+ mice. C. Weekly body weight was measured in male wild type C57BL/6 mice fed HFD and treated with SR 48692 (2.5 mg/kg diluted in diH2O and administered by oral gavage twice a day) or vehicle (vehicle n=12; SR 48692 n=13). BW slopes were compared: * p<0.05 vehicle vs. SR treatment. D. Weekly food intake was measured in male wild type C57BL/6 mice (n=12-13) fed HFD and chronically treated with either SR 48692 or vehicle. […] All data are mean+/−SD. […]

NT^+/+ and NT^−/− mice = assay: Acute SR 48692 treatment repeated in NT+/+ and NT-/- mice: proximal intestinal TG; type: in vivo; conditions: 2.5 mg/kg ip 30 min before olive oil
Text: as §1

C57BL/6 mice [5] = assay: Chronic SR 48692 treatment of HFD-fed mice: body weight and food intake; type: in vivo; conditions: wild type mice fed HFD
Text: FIGS. 13A-D show graphs and images illustrating that NT promotes intestinal cell lipid absorption or accumulation, while NT deficiency reduces intestinal lipid absorption A. Proximal intestines from mice given saline, olive oil, or olive oil+SR 48692 were collected and TG levels quantified as described above (n=8). Graph presents the fold change vs. control mice. * p<0.05 vs. control mice; † p<0.05 vs. mice with olive oil only. B. Male NT^+/+ and NT^−/− mice (n=4) on normal chow were fasted overnight. Mice were injected with either saline or SR 48692 (2.5 mg/kg, i.p). Thirty min after the injection, mice were given olive oil (10 μl/g) by oral gavage and then sacrificed. The proximal small bowel was excised and TG content measured. *p<0.05 vs. saline in NT^+/+ and NT^−/− mice; † p<0.05 vs. olive oil only in NT^+/+ mice; ‡ p<0.05 vs. olive oil only in NT^+/+ mice. C. Weekly body weight was measured in male wild type C57BL/6 mice fed HFD and treated with SR 48692 (2.5 mg/kg diluted in diH2O and administered by oral gavage twice a day) or vehicle (vehicle n=12; SR 48692 n=13). […] D. Weekly food intake was measured in male wild type C57BL/6 mice (n=12-13) fed HFD and chronically treated with either SR 48692 or vehicle. […]
All procedures were approved by the Institutional Animal Care and Use Committee of the University of Kentucky. […] Body weight and food intake were measured weekly. […]

AMPK [6] = assay: Western blot of p-AMPK in proximal intestinal mucosa after olive oil gavage; type: in vivo; conditions: mice after olive oil gavage, with or without SR 48692 pretreatment
Method: FIGS. 2A-M includes images and graphs illustrating NT deficiency reduces intestinal lipid absorption. A. (left panel) Fecal triglyceride (TG) was analyzed in male mice fed a high-fat diet (HFD) for 24 wks (n=3); * p=0.05 vs NT^+/+ mice; (right panel) Fecal weight was measured in male NT^+/+ and NT^−/− mice (n=7-9) fed either normal chow (NC) or HFD for 24 wks; there was no significant difference between genotypes. B. Oil red O (ORO) staining of proximal intestines from male mice (6-mo-old) under normal chow fed with or without olive oil by gavage after overnight fasting (n=3). C. Levels of ^13C18-oleic acid (OA) in male mice (5-mo-old) under normal chow fed with ^13C18-OA mixed in olive oil by gavage after an overnight fast was analyzed by nanospray FT-MS (n=3-4). Left panel, * p<0.05 vs. NT^+/+ mice. […] D. ORO staining of proximal intestines from male mice (5-mo-old) following gavage with or without olive oil plus NT after an overnight fast (left panel); TG was quantified (right panel) (n=5). * p<0.05 vs. Saline in NT^+/+ and NT^−/− mice, respectively; † p<0.05 vs. olive oil in NT^−/− mice; ‡ p<0.05 vs. olive oil in NT^+/+ mice. […] Densitometric quantification of p-AMPK was normalized to total AMPK and is presented as fold change vs. p-AMPK in NT^+/+ (right panel, n=9). * p<0.05 vs. NT^+/+. F. Protein extracts from mucosal scrapings of samples were analyzed by western blotting (left panel). […]

c1cc(-c2cnn3cc(-c4ccc(OCCN5CCCCC5)cc4)cnc23)ccn1 [compound C]
effect of AICAR on p-S6K1 and p-ERK1/2 [1]: attenuated this effect

CCCCCCCCCCCCCC(=O)O[C@@H]1[C@@H](C)[C@@]2(O)[C@@H](C=C(CO)C[C@]3(O)C(=O)C(C)=C[C@@H]23)[C@@H]2C(C)(C)[C@]12OC(C)=O [phorbol myristate acetate]
NT release (STC-1 cells): stimulated NT release

CCCCCCCC/C=C\CCCCCCCC(=O)[O-].[Na+] [oleate, Oleate sodium]
p-AMPK (AMPK [2]): led to an increase in p-AMPK | p-AMPK (AMPK [3]): led to an increase in p-AMPK

COc1cccc(OC)c1-c1cc(C(=O)NC2(C(=O)O)C3CC4CC(C3)CC2C4)nn1-c1ccnc2cc(Cl)ccc12 (stereo not shown) [SR 48692]
intestinal FA absorption following olive oil gavage (proximal intestine TG) (C57BL/6 mice [4]): decreased intestinal FA absorption | lipid absorption after olive oil administration (NT^+/+ and NT^−/− mice; NT-/- mice): did not further decrease lipid absorption | intestinal FA absorption (as measured by TG accumulation) (NT^+/+ and NT^−/− mice; wild type (NT+/+) mice): inhibited intestinal FA absorption | body weight gain (C57BL/6 mice [5]; 2.5 mg/kg oral gavage twice a day for 13 weeks): significantly attenuated body weight gain | food intake (cumulative and weekly) (C57BL/6 mice [5]; 2.5 mg/kg oral gavage twice a day, 2.5 mg/kg): without altering food intake; also recorded: did not show a significant difference | p-AMPK expression in proximal intestine (AMPK [6]): restored the p-AMPK expression to control levels
